What follows are molecules tested against Muscarinic acetylcholine receptor (Cavia porcellus, UniProt Q8VH26) (assay: Muscarinic acetylcholine receptor M3 agonistic/antagonistic activity in guinea pig ileum).
Sequence of Muscarinic acetylcholine receptor (Q8VH26 whole entry): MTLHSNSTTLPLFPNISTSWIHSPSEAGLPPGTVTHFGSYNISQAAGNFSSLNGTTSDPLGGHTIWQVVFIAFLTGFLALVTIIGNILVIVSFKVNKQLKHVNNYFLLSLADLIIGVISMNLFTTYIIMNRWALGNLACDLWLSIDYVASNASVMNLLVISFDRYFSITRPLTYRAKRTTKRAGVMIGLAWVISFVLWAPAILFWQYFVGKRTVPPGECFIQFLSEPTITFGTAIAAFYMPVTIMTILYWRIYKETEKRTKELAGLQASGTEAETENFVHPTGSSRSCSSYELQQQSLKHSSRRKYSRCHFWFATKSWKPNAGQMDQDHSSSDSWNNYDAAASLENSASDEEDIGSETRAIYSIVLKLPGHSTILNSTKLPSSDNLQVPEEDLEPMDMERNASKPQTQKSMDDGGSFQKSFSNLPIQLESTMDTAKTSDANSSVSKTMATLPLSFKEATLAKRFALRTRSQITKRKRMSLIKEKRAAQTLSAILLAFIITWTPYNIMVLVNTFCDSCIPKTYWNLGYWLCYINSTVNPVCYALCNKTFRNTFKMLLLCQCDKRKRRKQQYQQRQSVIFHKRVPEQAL
In the case of `CC(C#CCN1CCCC1)N(C)C(N)=O` (stereo not drawn), the EC50 is reported as < 1 nM. In the case of `CC(C#CCN1CCCC1)N1CCCC1=O` (stereo not drawn), the EC50 is reported as < 1 nM. With `CC(C#CCN1CCCC1)N1CCNC1=O` (stereo not drawn) the EC50 was < 1 nM.

— BindingDB's records for doi:10.1021/jm00095a025 (University of Uppsala, 1992)
